From PubChem BioAssay (NCI)
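Five compound concentrations were applied to cells in 96-well plates for 48 hours; endpoints were derived by simple linear interpolation of the resulting dose-response curve. GI50 = concentration required for 50% inhibition of growth. TGI denotes the concentration required for complete inhibition of growth.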

Legend:
Assay in all cases: NCI tumour cell line growth inhibition, 48 h
DMS 114 small cell lung = tested on: DMS 114 small cell lung
KM20L2 colon = tested on: KM20L2 colon
SNB-78 CNS = tested on: SNB-78 CNS
M19-MEL melanoma = tested on: M19-MEL melanoma
HOP-18 NSCLC = tested on: HOP-18 NSCLC
DLD-1 colon = tested on: DLD-1 colon
XF 498 CNS = tested on: XF 498 CNS
RXF-631 renal = tested on: RXF-631 renal
SN12K1 renal = tested on: SN12K1 renal
P388 leukemia = tested on: P388 leukemia
P388/ADR leukemia = tested on: P388/ADR leukemia
MDA-N = tested on: MDA-N

SMILES: Cc1ccccc1NC(=O)c1[nH]c(=S)nc(N)c1-c1ccccc1C
- TGI (DMS 114 small cell lung): > 100 µM
- TGI (KM20L2 colon): > 100 µM
- TGI (SNB-78 CNS): > 100 µM
- TGI (M19-MEL melanoma): > 100 µM
- TGI (HOP-18 NSCLC): > 100 µM
- TGI (DLD-1 colon): > 100 µM

SMILES: Cc1cc(Cl)ccc1N1C(=O)C(=O)C(c2nc3ccccc3s2)C(=O)C1=O
- TGI (DMS 114 small cell lung): > 100 µM
- TGI (XF 498 CNS): > 100 µM
- TGI (KM20L2 colon): > 100 µM
- TGI (SNB-78 CNS): > 100 µM
- TGI (HOP-18 NSCLC): > 100 µM
- TGI (DLD-1 colon): > 100 µM
- TGI (RXF-631 renal): > 100 µM

SMILES: Cc1ccc(S(=O)(=O)N2CCCCC2CCO)cc1 (stereo not given)
- TGI (DMS 114 small cell lung): > 100 µM
- TGI (KM20L2 colon): > 100 µM
- TGI (SNB-78 CNS): > 100 µM
- TGI (M19-MEL melanoma): > 100 µM
- TGI (HOP-18 NSCLC): > 100 µM
- TGI (DLD-1 colon): > 100 µM

SMILES: CCN(CCCl)CCNc1c2ccccc2nc2ccc(OC)cc12
- TGI (SN12K1 renal): 3.08 µM
- TGI (DMS 114 small cell lung): 2.35 µM
- TGI (XF 498 CNS): 2.43 µM
- TGI (KM20L2 colon): 3.45 µM
- TGI (SNB-78 CNS): 4.68 µM
- TGI (P388 leukemia): 0.58 µM
- TGI (P388/ADR leukemia): 2.29 µM
- TGI (M19-MEL melanoma): 2.24 µM
- TGI (HOP-18 NSCLC): 8.02 µM
- TGI (DLD-1 colon): 3.46 µM
- TGI (RXF-631 renal): 4.4 µM

SMILES: O=C(OCCOCCOC(=O)c1c[nH]cc1-c1ccccc1)c1c[nH]cc1-c1ccccc1
- TGI (DMS 114 small cell lung): 32.5 µM
- TGI (XF 498 CNS): 34.4 µM
- TGI (KM20L2 colon): 46 µM
- TGI (SNB-78 CNS): 68.7 µM
- TGI (M19-MEL melanoma): 34 µM
- TGI (DLD-1 colon): 71.4 µM

SMILES: CC(=O)O[C@H]1CC[C@@]2(C)C(=CC[C@@H]3C2CC[C@]2(C)Nc4oncc4CC32)C1 (stereo not given in full)
- TGI (XF 498 CNS): 84.4 µM
- TGI (KM20L2 colon): > 100 µM
- TGI (M19-MEL melanoma): > 100 µM
- TGI (DLD-1 colon): > 100 µM
- TGI (RXF-631 renal): > 100 µM

SMILES: CC(=O)Nc1ccc(C(=O)N[C@@H]2C(=O)N3[C@@H]2SC(C)(C)[C@@H]3C(=O)O)cn1
- TGI (MDA-N): > 100 µM

SMILES: NCCOc1ccccn1
- TGI (MDA-N): > 100 µM

SMILES: O=Cc1ccc(C(F)(F)F)cc1.[C-]#[O+].[C-]#[O+].[C-]#[O+].[Cr]
- GI50 (MDA-N): 18 µM
- TGI (MDA-N): 55.1 µM

SMILES: COC(=O)C1Cc2c([nH]c3ccccc23)C=N1 (stereo not given)
- TGI (DMS 114 small cell lung): > 100 µM
- TGI (KM20L2 colon): > 100 µM
- TGI (SNB-78 CNS): > 100 µM
- TGI (M19-MEL melanoma): > 100 µM
- TGI (HOP-18 NSCLC): > 100 µM
- TGI (DLD-1 colon): > 100 µM

SMILES: CCOC1NC(=O)Oc2ccccc21 (stereo not given)
- TGI (MDA-N): > 100 µM

SMILES: Cc1cccc(C)c1NC(=O)C(=O)C1C(=O)N(c2ccccc2)N=C1N (stereo not given)
- TGI (DMS 114 small cell lung): > 100 µM
- TGI (KM20L2 colon): > 100 µM
- TGI (SNB-78 CNS): > 100 µM
- TGI (M19-MEL melanoma): > 100 µM
- TGI (HOP-18 NSCLC): > 100 µM
- TGI (DLD-1 colon): > 100 µM

SMILES: C/C=C/C1(NS(=O)(=O)c2ccc(C)cc2)CCC(C(C)(C)C)CC1 (stereo not given)
- TGI (DMS 114 small cell lung): 62.3 µM
- TGI (XF 498 CNS): 39.3 µM
- TGI (KM20L2 colon): 38.7 µM
- TGI (SNB-78 CNS): 64.1 µM
- TGI (M19-MEL melanoma): 41 µM
- TGI (HOP-18 NSCLC): > 100 µM
- TGI (DLD-1 colon): > 100 µM
- TGI (RXF-631 renal): 71.8 µM

SMILES: CC(CN(CP(=O)([O-])[O-])CP(=O)([O-])[O-])N(CP(=O)([O-])[O-])CP(=O)([O-])[O-].N[C@@H]1CCCC[C@@H]1N.[Pt+2] (stereo not given)
- GI50 (KM20L2 colon): > 100 µM
- TGI (KM20L2 colon): > 100 µM
- GI50 (SNB-78 CNS): > 100 µM
- TGI (SNB-78 CNS): > 100 µM
- GI50 (HOP-18 NSCLC): > 100 µM
- TGI (HOP-18 NSCLC): > 100 µM
- GI50 (DLD-1 colon): > 100 µM
- TGI (DLD-1 colon): > 100 µM

SMILES: Cc1cc(Cl)ccc1NC(=O)C1C(=O)N(c2ccc(Cl)cc2C)C(=O)/C1=N\N (stereo not given)
- TGI (DMS 114 small cell lung): > 100 µM
- TGI (XF 498 CNS): > 100 µM
- TGI (KM20L2 colon): > 100 µM
- TGI (SNB-78 CNS): > 100 µM
- TGI (M19-MEL melanoma): > 100 µM
- TGI (HOP-18 NSCLC): > 100 µM

SMILES: N#CC(C#N)=C1NC(=O)C(c2ccccc2)C(=O)N1 (stereo not given)
- TGI (DMS 114 small cell lung): > 100 µM
- TGI (XF 498 CNS): > 100 µM
- TGI (KM20L2 colon): > 100 µM
- TGI (SNB-78 CNS): > 100 µM
- TGI (M19-MEL melanoma): > 100 µM
- TGI (DLD-1 colon): > 100 µM
- TGI (RXF-631 renal): > 100 µM

SMILES: O=S1(=O)CSc2ccc3ccccc3c2-c2c1ccc1ccccc21
- TGI (DMS 114 small cell lung): > 100 µM
- TGI (XF 498 CNS): > 100 µM
- TGI (SNB-78 CNS): > 100 µM
- TGI (M19-MEL melanoma): > 100 µM
- TGI (HOP-18 NSCLC): > 100 µM
- TGI (DLD-1 colon): > 100 µM
- TGI (RXF-631 renal): > 100 µM

SMILES: CC(C)(C)c1ccccc1NS(=O)(=O)c1ccccc1
- TGI (DMS 114 small cell lung): > 100 µM
- TGI (XF 498 CNS): > 100 µM
- TGI (KM20L2 colon): > 100 µM
- TGI (SNB-78 CNS): > 100 µM
- TGI (M19-MEL melanoma): > 100 µM
- TGI (RXF-631 renal): > 100 µM

SMILES: Cc1cc2c(=O)cc(-c3ccc(Cl)cc3)oc2c(C(=O)O)c1C
- TGI (DMS 114 small cell lung): > 100 µM
- TGI (XF 498 CNS): > 100 µM
- TGI (KM20L2 colon): > 100 µM
- TGI (SNB-78 CNS): > 100 µM
- TGI (M19-MEL melanoma): > 100 µM
- TGI (HOP-18 NSCLC): > 100 µM
- TGI (DLD-1 colon): > 100 µM
- TGI (RXF-631 renal): > 100 µM

SMILES: O=C(/C=C/c1ccccc1F)C(c1ccccc1)c1ccccc1
- TGI (XF 498 CNS): 3.56 µM
- TGI (KM20L2 colon): 15.6 µM
- TGI (SNB-78 CNS): 34.8 µM
- TGI (DLD-1 colon): 12.7 µM

SMILES: CC(C)(C)c1ccc(-c2nnc(SCc3ccc(Cl)cc3)n2-c2cccc(C(F)(F)F)c2)cc1
- TGI (MDA-N): > 100 µM

SMILES: CCCCCCCCCCCCC(Br)C(=O)SCCNC(=O)CCNC(=O)[C@@H](O)C(C)(C)COP(=O)(O)OP(=O)(O)OCC1OC(n2cnc3c(N)ncnc32)C(O)C1OP(=O)(O)O (stereo not given in full)
- TGI (DMS 114 small cell lung): > 56.5 µM
- TGI (XF 498 CNS): > 56.5 µM
- TGI (KM20L2 colon): > 56.5 µM
- TGI (SNB-78 CNS): > 56.5 µM
- TGI (M19-MEL melanoma): > 56.5 µM
- TGI (HOP-18 NSCLC): > 56.5 µM
- TGI (DLD-1 colon): > 56.5 µM

SMILES: COc1ccccc1NC(=O)C1=C(C)NC(C)=C(C(=O)Nc2ccccc2OC)C1c1ccc(C(C)C)cc1
- TGI (XF 498 CNS): > 100 µM
- TGI (KM20L2 colon): > 100 µM
- TGI (M19-MEL melanoma): > 100 µM
- TGI (HOP-18 NSCLC): > 100 µM
- TGI (DLD-1 colon): > 100 µM
- TGI (RXF-631 renal): > 100 µM

SMILES: COc1nc2c(nc(N)n2C2OC(CO)C(O)C(O)C2O)c(=O)n1C (stereo not given)
- TGI (DMS 114 small cell lung): > 100 µM
- TGI (XF 498 CNS): > 100 µM
- TGI (KM20L2 colon): > 100 µM
- TGI (SNB-78 CNS): > 100 µM
- TGI (M19-MEL melanoma): > 100 µM
- TGI (HOP-18 NSCLC): > 100 µM
- TGI (DLD-1 colon): > 100 µM
- TGI (RXF-631 renal): > 100 µM

SMILES: COc1ccc(Cc2ccccc2C(=O)O)c2ccccc12
- TGI (MDA-N): 74.4 µM

SMILES: O=c1c2ccccc2nc(-c2ccc(Cl)cc2)n1O
- TGI (MDA-N): > 100 µM

SMILES: CC(C)(C)c1cc(C(O)(C(F)(F)F)C(F)(F)F)c2c(c1)C(C(F)(F)F)(C(F)(F)F)OC(c1ccccc1)(C(C)(C)C)N2 (stereo not given)
- TGI (DMS 114 small cell lung): 9.8 µM
- TGI (XF 498 CNS): 6.24 µM
- TGI (KM20L2 colon): 21 µM
- TGI (SNB-78 CNS): 24.1 µM
- TGI (M19-MEL melanoma): 13.8 µM
- TGI (HOP-18 NSCLC): 6.81 µM
- TGI (DLD-1 colon): 14.6 µM

SMILES: O=C1c2cccnc2-c2nc(-c3ccc([N+](=O)[O-])cc3)cc3c2c1nc1ccccc13
- GI50 (MDA-N): 1.75 µM
- TGI (MDA-N): 3.22 µM

SMILES: COC(=O)/C(C#N)=C1\N=NNN1CCCc1ccccc1
- TGI (DMS 114 small cell lung): > 100 µM
- TGI (SNB-78 CNS): > 100 µM
- TGI (M19-MEL melanoma): > 100 µM
- TGI (HOP-18 NSCLC): > 100 µM
- TGI (DLD-1 colon): > 100 µM
- TGI (RXF-631 renal): > 100 µM

SMILES: O=C(CC1C(=O)Nc2ccccc2S1=O)Nc1cccc(Cl)c1 (stereo not given)
- TGI (DMS 114 small cell lung): > 100 µM
- TGI (XF 498 CNS): > 100 µM
- TGI (KM20L2 colon): > 100 µM
- TGI (SNB-78 CNS): > 100 µM
- TGI (M19-MEL melanoma): > 100 µM
- TGI (HOP-18 NSCLC): > 100 µM
- TGI (DLD-1 colon): > 100 µM
- TGI (MDA-N): 56.1 µM

SMILES: O=C1C(c2ccccc2)=C(c2ccccc2)C(c2ccccc2)/C1=C1\C(=O)C(c2ccccc2)=C(c2ccccc2)C1c1ccccc1 (stereo not given)
- TGI (DMS 114 small cell lung): > 100 µM
- TGI (KM20L2 colon): > 100 µM
- TGI (SNB-78 CNS): > 100 µM
- TGI (M19-MEL melanoma): > 100 µM
- TGI (HOP-18 NSCLC): > 100 µM
- TGI (DLD-1 colon): > 100 µM
